# Experimental data reported in ChEMBL document CHEMBL4825710, “Antibacterial activity of β-sitosterol isolated from the leaves of Odontonema strictum (Acanthaceae)” (2021).
# The source made the active and inactive calls. The rule behind the calls is not given here.
# Assays:
# Streptococcus pyogenes [1] = assay: Antibacterial activity against Streptococcus pyogenes assessed as bacterial growth inhibition at 12.5 ug/ml; assay type: functional, organism-based; details: dose 12.5 µg/ml
# Streptococcus pyogenes [2] = assay: Antibacterial activity against Streptococcus pyogenes assessed as bacterial growth inhibition; assay type: functional
# Pseudomonas aeruginosa [3] = assay: Antibacterial activity against Pseudomonas aeruginosa assessed as bacterial growth inhibition; assay type: functional
# Bacillus subtilis [4] = assay: Antibacterial activity against Bacillus subtilis assessed as bacterial growth inhibition; assay type: functional
# Staphylococcus aureus [5] = assay: Antibacterial activity against Staphylococcus aureus assessed as bacterial growth inhibition; assay type: functional
# Shigella dysenteriae [6] = assay: Antibacterial activity against Shigella dysenteriae assessed as bacterial growth inhibition at 12.5 ug/ml; assay type: functional, organism-based; details: dose 12.5 µg/ml
# Candida albicans [7] = assay: Antifungal activity against Candida albicans assessed as fungal growth inhibition at 12.5 ug/ml; assay type: functional, organism-based; details: dose 12.5 µg/ml
# Staphylococcus aureus [8] = assay: Bactericidal activity against Staphylococcus aureus; assay type: functional
# Proteus vulgaris [9] = assay: Antibacterial activity against Proteus vulgaris assessed as bacterial growth inhibition at 12.5 ug/ml; assay type: functional, organism-based; details: dose 12.5 µg/ml
# Staphylococcus aureus [10] = assay: Antibacterial activity against Staphylococcus aureus assessed as bacterial growth inhibition at 12.5 ug/ml; assay type: functional, organism-based; details: dose 12.5 µg/ml
# Shigella dysenteriae [11] = assay: Antibacterial activity against Shigella dysenteriae assessed as bacterial growth inhibition; assay type: functional
# Salmonella typhi [12] = assay: Antibacterial activity against Salmonella typhi assessed as bacterial growth inhibition at 12.5 ug/ml; assay type: functional, organism-based; details: Salmonella enterica subsp. enterica serovar Typhi; dose 12.5 µg/ml
# Proteus vulgaris [13] = assay: Antibacterial activity against Proteus vulgaris assessed as bacterial growth inhibition; assay type: functional
# Corynebacterium = assay: Antibacterial activity against Corynebacterium assessed as bacterial growth inhibition at 12.5 ug/ml; assay type: functional, organism-based; details: dose 12.5 µg/ml
# Pseudomonas aeruginosa [14] = assay: Antibacterial activity against Pseudomonas aeruginosa assessed as bacterial growth inhibition at 12.5 ug/ml; assay type: functional, organism-based; details: dose 12.5 µg/ml
# Corynebacterium ulcerans = assay: Antibacterial activity against Corynebacterium ulcerans assessed as bacterial growth inhibition; assay type: functional
# Candida albicans [15] = assay: Antifungal activity against Candida albicans assessed as fungal growth inhibition; assay type: functional
# Staphylococcus aureus [16] = assay: Antibacterial activity against Staphylococcus aureus assessed as inhibition of bacterial growth measured after 24 hrs by serial dilution method; assay type: functional
# Bacillus subtilis [17] = assay: Antibacterial activity against Bacillus subtilis assessed as bacterial growth inhibition at 12.5 ug/ml; assay type: functional, organism-based; details: dose 12.5 µg/ml
# Salmonella typhi [18] = assay: Antibacterial activity against Salmonella typhi assessed as bacterial growth inhibition; assay type: functional, Salmonella enterica subsp. enterica serovar Typhi; details: Salmonella enterica
structure (smiles),measurement,setting,value
CC[C@H](CC[C@@H](C)[C@H]1CC[C@H]2[C@@H]3CC=C4C[C@@H](O)CC[C@]4(C)[C@H]3CC[C@]12C)C(C)C [BETA-SITOSTEROL],growth inhibition (GI),Streptococcus pyogenes [1],Active
same,MBC,Streptococcus pyogenes [2],50 µg/mL
same,MBC,Pseudomonas aeruginosa [3],50 µg/mL
same,MBC,Bacillus subtilis [4],25 µg/mL
same,MBC,Staphylococcus aureus [5],50 µg/mL
same,growth inhibition (GI),Shigella dysenteriae [6],Active
same,growth inhibition (GI),Candida albicans [7],Active
same,MBC,Staphylococcus aureus [8],2210 µg/mL
same,growth inhibition (GI),Proteus vulgaris [9],Active
same,growth inhibition (GI),Staphylococcus aureus [10],Active
same,MBC,Shigella dysenteriae [11],50 µg/mL
same,growth inhibition (GI),Salmonella typhi [12],Active
same,MBC,Proteus vulgaris [13],50 µg/mL
same,growth inhibition (GI),Corynebacterium,Active
same,growth inhibition (GI),Pseudomonas aeruginosa [14],Active
same,MBC,Corynebacterium ulcerans,25 µg/mL
same,MFC,Candida albicans [15],50 µg/mL
same,MIC,Staphylococcus aureus [16],1240 µg/mL
same,growth inhibition (GI),Bacillus subtilis [17],Active
same,MBC,Salmonella typhi [18],25 µg/mL
